These results are taken from patent publication US6818631B1, “Fungicidal pyrimidine derivatives” (Nippon Soda Co. Ltd., priority 2003, dated 2004).

SMILES strings stand for the structures.

Consider `Fc1c(-n2ccnc2)nc(-n2ccnc2)nc1C(F)(F)F` [Example 19, 5-Fluoro-2,4-diimidazol-1-yl-6-trifluoromethylpyrimidine], for which the melting point (in general, the temperature, or range, at which the solid turns liquid) is 142 to 150 °C (dec.).

With `O=C1CCCN1c1nc(-n2ccnc2)c(I)c(C(F)(F)F)n1` [Example 14, 1-(4-Imidazol-1-yl-5-iodo-6-trifluoromethylpyrimidin-2-yl)-pyrrolidin-2-one], the melting point fell in the range of 195 to 197 °C.

In turn, `C#CCOc1nc(-n2ccnc2)c(I)c(C(F)(F)F)n1` [Example 13, 4-Imidazol-1-yl-5-iodo-2-prop-2-ynyloxy-6-trifluoromethyl-pyrimidine] had a melting point of 128 to 129 °C.

The compound `CSc1nc(-c2nn[nH]n2)c(I)c(C(F)(F)F)n1` [Example 15, 5-Iodo-2-methylthio-4-(2H-tetrazol-5-yl)-6-trifluoromethyl-pyrimidine] gave a melting point of 196 to 200 °C.

Turning to `C#Cc1c(-n2ccnc2)nc(C)nc1C(F)(F)F` [Example 18, 5-Ethynyl-4-imidazol-1-yl-2-methyl-6-trifluoromethylpyrimidine], the melting point was 121 to 122 °C.
